According to the supplement of paper PMC10627819:

How the values were obtained:
[1] = test system: B. subtilis 168; assay: fitness (endpoint OD595 vs no drug) (fraction); higher = more growth
How it was run: (§1)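 Fitness compares growth at the stationary-phase transition with the robust mean of no-drug control wells, as a ratio of optical densities. The ratio is capped at 1. Wells of 384-well plates held 30 µl, or 55 µl for S. pneumoniae, inoculated at OD595 0.01. Readings at OD595 every 30 min for 14 h at 37 °C were corrected against the first reading.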

[2] = test system: S. pneumoniae D39V; assay: Bliss interaction score (quartile over a dose matrix) (fitness difference); higher = more antagonism (negative = synergy)
How it was run: (§2)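 Fitness here means normalised growth, inferred for single drugs from the combination data. Growth was OD595 at entry into stationary phase, divided by the plate's robust no-drug mean and capped at 1. The Bliss score is observed minus expected fitness, with the expectation being the product, and its quartiles span technical, biological and donor/recipient replicates.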

[3] = test system: S. aureus Newman; assay: as above
How it was run: as §2

[4] = test system: S. aureus DSM 20231; assay: as above
How it was run: as §2

[5] = test system: B. subtilis 168; assay: as above
How it was run: as §2

[6] = test system: S. pneumoniae D39V; assay: fitness (endpoint OD595 vs no drug) (fraction); higher = more growth
How it was run: as §1
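Wherever Bliss interaction score (quartile over a dose matrix) is given: first quartile when negative (synergy) and third quartile when positive (antagonism).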
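Wherever fitness (endpoint OD595 vs no drug) is given: OD595 on entry to stationary phase over no-drug wells; at most 1.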

CCC[C@@H]1C[C@@H](C(=O)N[C@@H]([C@H]2O[C@H](SC)[C@H](O)[C@@H](O)[C@H]2O)[C@@H](C)O)N(C)C1 [Lincomycin] + CO[C@@H]1[C@@H](OC(N)=O)[C@@H](O)[C@H](Oc2ccc3c(O)c(NC(=O)c4ccc(O)c(CC=C(C)C)c4)c(=O)oc3c2C)OC1(C)C [Novobiocin]
fitness, [1]
Details	first compound 0.1 µg/mL	first compound 0.2 µg/mL	first compound 0.4 µg/mL
partner 0.0125 µg/mL	0.889	0.971	0.899
partner 0.025 µg/mL	0.879	0.894	0.845
partner 0.05 µg/mL	0.905	0.932	0.902

fitness, [1], one replicate
Details	first compound 0.1 µg/mL	first compound 0.2 µg/mL	first compound 0.4 µg/mL	first compound 0.8 µg/mL	first compound 1.6 µg/mL
partner 0.1 µg/mL	≥ 1	0.995	0.976	–	–
partner 0.125 µg/mL	–	–	0.836	0.883	0.88
partner 0.2 µg/mL	0.991	0.956	≥ 1	–	–
partner 0.25 µg/mL	–	–	0.809	0.848	0.819
partner 0.5 µg/mL	–	–	0.569	0.563	0.594

Details	Bliss interaction score
[2]	-0.0884
[3]	0.191
[4]	0.104
[5]	-0.0587

CCC[C@@H]1C[C@@H](C(=O)N[C@@H]([C@H]2O[C@H](SC)[C@H](O)[C@@H](O)[C@H]2O)[C@H](C)Cl)N(C)C1 [Clindamycin] + C[C@H]1c2cccc(O)c2C(=O)C2=C(O)[C@]3(O)C(=O)C(C(N)=O)=C(O)[C@@H](N(C)C)[C@@H]3[C@@H](O)[C@@H]21 [Doxycycline]
Details	fitness
[1], first compound 0.0625 µg/mL, partner 0.04 µg/mL	0.406
[1], first compound 0.0625 µg/mL, partner 0.08 µg/mL	0.0499
[1], first compound 0.125 µg/mL, partner 0.02 µg/mL	0.389
[1], first compound 0.125 µg/mL, partner 0.04 µg/mL	0.164
[1], first compound 0.125 µg/mL, partner 0.08 µg/mL	0.0428
[1], first compound 0.25 µg/mL, partner 0.02 µg/mL	0.293
[1], first compound 0.25 µg/mL, partner 0.04 µg/mL	0.11
[1], first compound 0.25 µg/mL, partner 0.08 µg/mL	0.0404
[6], first compound 0.0125 µg/mL, partner 0.0155 µg/mL	0.451
[6], first compound 0.0125 µg/mL, partner 0.031 µg/mL	0.35
[6], first compound 0.0125 µg/mL, partner 0.062 µg/mL	0.114
[6], first compound 0.015 µg/mL, partner 0.0155 µg/mL	0.876
[6], first compound 0.025 µg/mL, partner 0.0155 µg/mL	0.28
[6], first compound 0.025 µg/mL, partner 0.031 µg/mL	0.245
[6], first compound 0.025 µg/mL, partner 0.062 µg/mL	0.078
[6], first compound 0.03 µg/mL, partner 0.0155 µg/mL	0.745
[6], first compound 0.05 µg/mL, partner 0.0155 µg/mL	0.0637
[6], first compound 0.05 µg/mL, partner 0.031 µg/mL	0.0376
[6], first compound 0.05 µg/mL, partner 0.062 µg/mL	0.073
[6], first compound 0.06 µg/mL, partner 0.0155 µg/mL	0.577

fitness, one replicate
Details	partner 0.003875 µg/mL	partner 0.00775 µg/mL	partner 0.02 µg/mL	partner 0.031 µg/mL	partner 0.04 µg/mL	partner 0.062 µg/mL	partner 0.08 µg/mL
[1], first compound 0.0039 µg/mL	–	–	0.97	–	0.891	–	0.677
[1], first compound 0.0078 µg/mL	–	–	0.831	–	0.781	–	0.515
[1], first compound 0.0156 µg/mL	–	–	0.824	–	0.743	–	0.235
[6], first compound 0.015 µg/mL	0.934	0.931	–	0.803	–	0.567	–
[6], first compound 0.03 µg/mL	0.778	0.777	–	0.588	–	0.359	–
[6], first compound 0.06 µg/mL	0.714	0.743	–	0.405	–	0.163	–

Details	Bliss interaction score
[2]	-0.151
[3]	-0.135
[4]	-0.0562
[5]	-0.184

O=C(O[C@@H]1Cc2c(O)cc(O)cc2O[C@@H]1c1cc(O)c(O)c(O)c1)c1cc(O)c(O)c(O)c1 [EGCG] + CO[C@@H]1[C@@H](OC(N)=O)[C@@H](O)[C@H](Oc2ccc3c(O)c(NC(=O)c4ccc(O)c(CC=C(C)C)c4)c(=O)oc3c2C)OC1(C)C [Novobiocin]
fitness, [1]
Details	first compound 6.25 µg/mL	first compound 12.5 µg/mL	first compound 25 µg/mL
partner 0.0125 µg/mL	0.968	0.643	0.253
partner 0.025 µg/mL	0.93	0.568	0.234
partner 0.05 µg/mL	0.9	–	0.29

fitness, [1], one replicate
Details	partner 0.1 µg/mL	partner 0.125 µg/mL	partner 0.2 µg/mL	partner 0.25 µg/mL	partner 0.5 µg/mL
first compound 6.25 µg/mL	0.949	0.92	0.896	0.875	0.563
first compound 12.5 µg/mL	0.756	0.69	0.759	0.522	0.194
first compound 25 µg/mL	0.546	0.213	0.541	0.223	0.207

Details	Bliss interaction score
[2]	-0.0624
[3]	0.074
[4]	0.0574
[5]	-0.0765

O=C(O[C@@H]1Cc2c(O)cc(O)cc2O[C@@H]1c1cc(O)c(O)c(O)c1)c1cc(O)c(O)c(O)c1 [EGCG] + CN(C)C(=O)C(CCN1CCC(O)(c2ccc(Cl)cc2)CC1)(c1ccccc1)c1ccccc1 [Loperamide]
fitness
Details	first compound 6.25 µg/mL	first compound 12.5 µg/mL	first compound 25 µg/mL	first compound 50 µg/mL
[1], partner 25 µg/mL	–	–	0.0734	–
[1], partner 50 µg/mL	–	0.0521	0.0237	–
[1], partner 100 µg/mL	0.0302	0.0337	0.0599	–
[6], partner 17.14 µg/mL	–	0.91	0.921	0.965
[6], partner 20 µg/mL	–	0.988	≥ 1	0.991
[6], partner 34.28 µg/mL	–	0.895	0.982	0.992
[6], partner 40 µg/mL	–	0.984	≥ 1	≥ 1

[6], partner 68.57 µg/mL, one replicate
Details	fitness
first compound 12.5 µg/mL	0.491
first compound 25 µg/mL	0.958
first compound 50 µg/mL	0.891

Details	Bliss interaction score
[2]	0.0701
[3]	-0.0758
[4]	0.183
[5]	-0.097
